Measurements: patent US10286022B2, “Medicinal composition of extract of seed of emblica officinalis and method of preparing the same” (priority 2013, dated 2019)

Tests used:
[1] = tested on: Triton WR 1339 induced dyslipidemia in Albino rats (Sprague Dawley strain); experiment: Hypolipidemic activity of enriched amla seed extract, Triton WR 1339 model (Example 28); format: in vivo, rat
Experimental: Fifty two male Albino rats (Sprague Dawley strain) weighing approximately 250-300 gm were selected for the study. The animals were maintained at temperature of 24±2° C., 65% relative humidity and 12 hr light/dark cycle. The rats were acclimatized for two weeks and during this period they had access to standard pellet diet and water ad libitum. After two weeks of acclimatization, all the rats were fasted overnight before injecting Triton WR 1339 (Tyloxapol) and administration of test extracts/standard. The animals were divided into thirteen groups. Following treatment was given to overnight fasted rats: • Group I: Normal control (vehicle only). • Group II: Triton WR 1339 (300 mg/kg, intraperitoneal). • Group III: Triton WR 1339 (300 mg/kg, intraperitoneal) followed by administering sample 1 of Amla seed extract prepared as per example 27 on the same day of triton administration (0.5 mg/kg, per oral). • Group IV: Triton WR 1339 (300 mg/kg, intraperitoneal) followed by Amla seed extract prepared as per example 1 (0.5 mg/kg, per oral). • Group V: Triton WR 1339 (300 mg/kg, intraperitoneal) followed by sample 2 which is a 1:1 combination of amla seed extract (sample 1) prepared as per example 27 and product 1 (Hexane fraction) of amla seed extract prepared as per example 13 on the same day that Triton was administered (0.5 mg/kg, per oral). • Group VI: Triton WR 1339 (300 mg/kg, intraperitoneal) followed by administering product of amla seed extract (product 3) prepared as per example 13 on the same day of triton administration (0.5 mg/kg, per oral). • Group VII: Triton WR 1339 (300 mg/kg, intraperitoneal) followed by product 2 (50% methanol fraction+80% methanol fraction+water fraction) of amla seed extract prepared as per example 13 on the same day that triton was administered (0.5 mg/kg, per oral). • Group VIII: Triton WR 1339 (300 mg/kg, intraperitoneal) followed by product 1 (hexane fraction) of amla seed extract prepared as per example 13 on the same day that triton was administered (0.5 mg/kg, per oral). • Group IX: Triton WR 1339 (300 mg/kg, intraperitoneal) followed by water extract of dried amla seed powder prepared as per example 8 (0.5 mg/kg, per oral). • Group X: Triton WR 1339 (300 mg/kg, intraperitoneal) followed by methanol extract of dried amla seed powder prepared as per example 9 (0.5 mg/kg, per oral). • Group XI: Triton WR 1339 (300 mg/kg, intraperitoneal) followed by water extract of dried amla fruit powder prepared as per example 11 (0.5 mg/kg, per oral). • Group XII: Triton WR 1339 (300 mg/kg, intraperitoneal) followed by methanol extract of dried amla fruit powder prepared as per example 12 (0.5 mg/kg, per oral). • Group XIII: Triton WR 1339 (300 mg/kg, intraperitoneal) followed by atorvastatin administration (10 mg/kg, per oral), on the same day.
The animals were deprived of food for next 24 hours but had free access to water ad libitum. After 24 hours of drug treatment, 2 ml of blood sample was collected from the retro orbital plexus. The blood was allowed to clot and then centrifuged at 3000 rpm for 10 min and the serum was carefully drawn and collected into separate tubes. The serum was analyzed for total cholesterol, triglycerides, high density lipoproteins (HDL), low density lipoproteins (LDL) and very low density lipoproteins (VLDL) levels using auto-analyzer.

[2] = tested on: Triton WR 1339 induced dyslipidemia in Albino rats (Sprague Dawley strain); experiment: Single dosage study compared with other amla extracts, Triton WR 1339 model (Example 21); format: in vivo, rat
Experimental: Forty eight male Albino rats (Sprague Dawley strain) weighing approximate 250-300 gm were selected for the study. The animals were kept in the animal house maintained at temp 24±2° C., 65% relative humidity and 12 hr light/dark cycle. The rats were acclimatized for two weeks and during this period they had access to standard pellet diet and water ad libitum. After two weeks of acclimatization, all the rats were fasted overnight before injecting Triton WR 1339 (Tyloxapol) and administration of test extracts/standard. The animals were divided into eight groups. Following treatment was given to overnight fasted rats: • Group I: Normal control (vehicle only). • Group II: Triton WR 1339 (300 mg/kg, intraperitoneal). • Group III: Triton WR 1339 (300 mg/kg, intraperitoneal) followed by amla seed extract prepared as per example 1 (2.5 mg/kg, per oral). • Group IV: Triton WR 1339 (300 mg/kg, intraperitoneal) followed by amla extract prepared as per example 3 (2.5 mg/kg, per oral). • Group V: Triton WR 1339 (300 mg/kg, intraperitoneal) followed by amla extract prepared as per example 4 (2.5 mg/kg, per oral). • Group VI: Triton WR 1339 (300 mg/kg, intraperitoneal) followed by amla extract prepared as per example 5 (2.5 mg/kg, per oral). • Group VII: Triton WR 1339 (300 mg/kg, intraperitoneal) followed by amla extract prepared as per example 6 (2.5 mg/kg, per oral). • Group VIII: Triton WR 1339 (300 mg/kg, intraperitoneal) followed by atorvastatin (10 mg/kg, per oral).
The animals were deprived of food for next 24 hours but had free access to water ad libitum. After 24 hour of drug treatment 2 ml blood samples were collected from the retro orbital plexus. The blood was allowed to clot and then centrifuged at 3000 rpm for 10 min and the serum was carefully drawn and collected into separate tubes. The serum was analyzed for total cholesterol, triglycerides, high density lipoproteins (HDL), low density lipoproteins (LDL) and very low density lipoproteins (VLDL) levels using auto-analyzer.

[3] = 24 h after Triton i.p. + 10 mg/kg p.o.

## CC(C)c1c(C(=O)Nc2ccccc2)c(-c2ccccc2)c(-c2ccc(F)cc2)n1CC[C@@H](O)C[C@@H](O)CC(=O)O [Atorvastatin]
[1]; [3]
  HDL After: 35.1 mg/dL
  LDL After: 49.39 mg/dL
  TC After: 124.54 mg/dL
  TG After: 200.25 mg/dL
  VLDL After: 40.06 mg/dL
[1]; baseline, 10 mg/kg p.o. group
  HDL Before: 32.41 mg/dL
  LDL Before: 61.7 mg/dL
  TC Before: 104.21 mg/dL
  TG Before: 50.54 mg/dL
  VLDL Before: 10 mg/dL
[2]; [3]
  HDL After: 36.66 mg/dL
  LDL After: 43.67 mg/dL
  TC After: 122.54 mg/dL
  TG After: 211.06 mg/dL
  VLDL After: 42.21 mg/dL
[2]; baseline, 10 mg/kg p.o. group
  HDL Before: 39.51 mg/dL
  LDL Before: 51.00 mg/dL
  TC Before: 99.83 mg/dL
  TG Before: 46.59 mg/dL
  VLDL Before: 9.31 mg/dL
[2]; extracts 2.5 mg/kg, atorvastatin 10 mg/kg p.o.
  effect on cholesterol and triglyceride level: less effective when compared with the amla seed extract
